Laboratory results published in publication PMC7053212, “Auger radiopharmaceutical therapy targeting prostate-specific membrane antigen in a micrometastatic model of prostate cancer” (Theranostics, 2020).
Entries after “also recorded” stand apart in the source; their conditions may differ. Read-outs that look alike come from different tables or passages of the source.

How the values were obtained:
[1] = Long-term toxicity evaluation and necropsy, non-tumor-bearing mice; assay type: in vivo, CD1 mice
Protocol: Urinalysis evaluating specific gravity and urine protein levels via dipstick (Chemstrip Test Strips, Roche Diagnostics) was performed monthly for each animal. Terminal clinical and anatomic pathology was done in the Johns Hopkins Phenotyping and Comparative Pathology Core. Assessments included serum metabolic panel, blood counts, and complete necropsy with histopathology of more than 30 tissues as described previously.

[2] = Long-term biodistribution in normal tissues of non-tumor-bearing mice; assay type: in vivo, CD1 mice; settings: 18.5 MBq iv, mean
Protocol: Comparison between tumor and kidney uptake was performed using Student's t-test.

metastatic PC = system: metastatic PC; parameters: method as in PMID 23863050; settings: cited from earlier work
[3] = system: PSMA-positive micrometastatic PC model; parameters: method as in PMID 27230930; settings: 740 kBq; cited from earlier work
[4] = parameters: method as in PMID 27230930; settings: cited from earlier work
[5] = system: epidermal growth factor receptor-positive metastatic breast cancer; parameters: method as in PMID 24753984; settings: activities up to 2.3 GBq; cited from earlier work
[6] = any activity up to 111 MBq, 12 months

## O=C(O)CCC(NC(=O)NC(CCCCNC(=O)c1ccc([125I])cc1)C(=O)O)C(=O)O (stereo not shown) [^125I-DCIBzL]
[1]; 111 MBq, necropsy at 12 months
  Average blood urea nitrogen: 14.5 mg/dL
  Average creatinine: 0.4 mg/dL
[1]; CD1 mice, 12 months
  Maximum tolerated dose (MTD): at least 111 MBq
[1]; activities up to 111 MBq iv, 12 months
  Maximum tolerated dose (MTD): not reached
[1]; [6]
  Death from toxicity: No mouse treated with any activity of ^125I-DCIBzL died from toxicity
  Long-term toxicity (weight, urinalysis, necropsy): no appreciable toxicity; also recorded: no acute or long-term toxicity was noted; also recorded: no long-term toxicities were noted
[1]; highest activities, 12 months
  Renal histopathology: mild renal tubule epithelial hypertrophic changes with occasional atypia
[1]; treated mice, 12 months
  Average hemoglobin at necropsy: 12.8 g/dL
  Long-term hematologic toxicity (histopathology of spleen, bone marrow, lymph nodes): not noted
[1]; up to 111 MBq, 12 months
  Late nephropathy on necropsy: no evidence of late nephropathy
[1]; up to 111 MBq, 12 months, vs untreated
  Changes in body weight or urine protein levels: no consistent changes
[2]; 2 weeks
  % Injected Dose/gram Bladder: 0.15 % Injected Dose/gram
  % Injected Dose/gram Blood: 0.01 % Injected Dose/gram
  % Injected Dose/gram Heart: 0.05 % Injected Dose/gram
  % Injected Dose/gram Large intestine: 0.05 % Injected Dose/gram
  % Injected Dose/gram Liver: 0.05 % Injected Dose/gram
  % Injected Dose/gram Lung: 0.31 % Injected Dose/gram
  % Injected Dose/gram Muscle: 0.05 % Injected Dose/gram
  % Injected Dose/gram Pancreas: 0.07 % Injected Dose/gram
  % Injected Dose/gram Salivary gland: 0.13 % Injected Dose/gram
  % Injected Dose/gram Small intestine: 0.03 % Injected Dose/gram
  % Injected Dose/gram Spleen: 0.77 % Injected Dose/gram
  % Injected Dose/gram Stomach: 0.05 % Injected Dose/gram
[2]; 4 weeks
  % Injected Dose/gram Bladder: 0.06 % Injected Dose/gram
  % Injected Dose/gram Blood: 0.00 % Injected Dose/gram
  % Injected Dose/gram Heart: 0.02 % Injected Dose/gram
  % Injected Dose/gram Large intestine: 0.02 % Injected Dose/gram
  % Injected Dose/gram Liver: 0.02 % Injected Dose/gram
  % Injected Dose/gram Lung: 0.12 % Injected Dose/gram
  % Injected Dose/gram Muscle: 0.03 % Injected Dose/gram
  % Injected Dose/gram Pancreas: 0.03 % Injected Dose/gram
  % Injected Dose/gram Salivary gland: 0.05 % Injected Dose/gram
  % Injected Dose/gram Small intestine: 0.02 % Injected Dose/gram
  % Injected Dose/gram Spleen: 0.36 % Injected Dose/gram
  % Injected Dose/gram Stomach: 0.02 % Injected Dose/gram
[2]; 6 weeks
  % Injected Dose/gram Bladder: 0.04 % Injected Dose/gram
  % Injected Dose/gram Blood: 0.00 % Injected Dose/gram
  % Injected Dose/gram Heart: 0.01 % Injected Dose/gram
  % Injected Dose/gram Large intestine: 0.02 % Injected Dose/gram
  % Injected Dose/gram Liver: 0.01 % Injected Dose/gram
  % Injected Dose/gram Lung: 0.05 % Injected Dose/gram
  % Injected Dose/gram Muscle: 0.02 % Injected Dose/gram
  % Injected Dose/gram Pancreas: 0.02 % Injected Dose/gram
  % Injected Dose/gram Salivary gland: 0.02 % Injected Dose/gram
  % Injected Dose/gram Small intestine: 0.01 % Injected Dose/gram
  % Injected Dose/gram Spleen: 0.10 % Injected Dose/gram
  % Injected Dose/gram Stomach: 0.01 % Injected Dose/gram
[2]; 8 weeks
  % Injected Dose/gram Bladder: 0.01 % Injected Dose/gram
  % Injected Dose/gram Blood: 0.00 % Injected Dose/gram
  % Injected Dose/gram Heart: 0.00 % Injected Dose/gram
  % Injected Dose/gram Large intestine: 0.01 % Injected Dose/gram
  % Injected Dose/gram Liver: 0.00 % Injected Dose/gram
  % Injected Dose/gram Lung: 0.03 % Injected Dose/gram
  % Injected Dose/gram Muscle: 0.01 % Injected Dose/gram
  % Injected Dose/gram Pancreas: 0.01 % Injected Dose/gram
  % Injected Dose/gram Salivary gland: 0.01 % Injected Dose/gram
  % Injected Dose/gram Small intestine: 0.01 % Injected Dose/gram
  % Injected Dose/gram Spleen: 0.05 % Injected Dose/gram
  % Injected Dose/gram Stomach: 0.00 % Injected Dose/gram
[2]; 10 weeks
  % Injected Dose/gram Bladder: 0.00 % Injected Dose/gram
  % Injected Dose/gram Blood: 0.00 % Injected Dose/gram
  % Injected Dose/gram Heart: 0.00 % Injected Dose/gram
  % Injected Dose/gram Large intestine: 0.00 % Injected Dose/gram
  % Injected Dose/gram Liver: 0.00 % Injected Dose/gram
  % Injected Dose/gram Lung: 0.00 % Injected Dose/gram
  % Injected Dose/gram Muscle: 0.00 % Injected Dose/gram
  % Injected Dose/gram Pancreas: 0.00 % Injected Dose/gram
  % Injected Dose/gram Salivary gland: 0.00 % Injected Dose/gram
  % Injected Dose/gram Small intestine: 0.00 % Injected Dose/gram
  % Injected Dose/gram Spleen: 0.01 % Injected Dose/gram
  % Injected Dose/gram Stomach: 0.00 % Injected Dose/gram
[2]; 12 weeks
  % Injected Dose/gram Bladder: 0.00 % Injected Dose/gram
  % Injected Dose/gram Blood: 0.00 % Injected Dose/gram
  % Injected Dose/gram Heart: 0.00 % Injected Dose/gram
  % Injected Dose/gram Large intestine: 0.00 % Injected Dose/gram
  % Injected Dose/gram Liver: 0.00 % Injected Dose/gram
  % Injected Dose/gram Lung: 0.01 % Injected Dose/gram
  % Injected Dose/gram Muscle: 0.00 % Injected Dose/gram
  % Injected Dose/gram Pancreas: 0.00 % Injected Dose/gram
  % Injected Dose/gram Salivary gland: 0.00 % Injected Dose/gram
  % Injected Dose/gram Small intestine: 0.00 % Injected Dose/gram
  % Injected Dose/gram Spleen: 0.01 % Injected Dose/gram
  % Injected Dose/gram Stomach: 0.00 % Injected Dose/gram

## [Cl][223Ra][Cl] [^223RaCl2]
Metastatic PC
  Prolongation of survival: 3 months

## O=C(O)CC[C@H](NC(=O)NC(CCCCNC(=O)c1ccc([211At])cc1)C(=O)O)C(=O)O (stereo partly drawn) [^211At-PSMA-6, (2S)-2-(3-(1-carboxy-5-(4-^211At-astatobenzamido)pentyl)ureido)-pentanedioic acid]
[3]
  Increase in median survival: ~2 fold
[4]; CD1 mice
  Maximum tolerated dose (MTD): 37 kBq
[4]
  Dose-limiting toxicity: dose-limiting late nephrotoxicity

## ^111In-DTPA-hEGF: Auger RPT evaluated in a Phase I trial of epidermal growth factor receptor-positive metastatic breast cancer
[5]
  MTD: not reached
